Measured values published in US7344829B2, “Methods for detecting the efficacy of anticancer treatments” (Board of Regents, the University of Texas System, priority 2000, dated 2008).
Marks after values point to notes of the source that are not given here.

Columns and labels:
[1] = target: PKC-α (Homo sapiens, UniProt P17252); assay: PKC inhibition assay; format: biochemical
Method: (§1) GST-fused kinase domains of Kdr, Flt-1, Flk, Tek, c-Met, and c-Kit were expressed in baculovirus and purified over glutathione-Sepharose. Kinase inhibition was measured by detecting the decrease in phosphorylation of poly(Glu,Tyr 4:1) essentially as previously described for EGF-R. Each kinase was incubated under optimized buffer conditions in 20 mM Tris-HCl, pH 7.5, 1–3 mM MnCl2, 3–10 mM MgCl2, 10 μM Na3VO4, 1 mM DTT, 0.2 μCi/[γ-^33P]ATP, 1–8 μM ATP, 3–8 μg/ml poly(Glu,Tyr 4:1), 1% DMSO in a total volume of 30 μl in the presence or absence of PKI166 for 10 min at ambient temperature. Reactions were terminated by adding 10 μl of 250 mM EDTA, and the reaction mixture was transferred onto an Immobilon-PVDG membrane (Millipore, Bedford, Mass.). Following a washing (0.5% H3PO4), a soaking in EtOH, and drying, filters were counted in a liquid scintillation counter. IC50 values for PKI166 were calculated by linear regression analysis of the percentage inhibition. Inhibition of Cdc2/cyclin B protein kinase (Arion et al. 1988; Partanen et al. 1991) and PKC (McGlynn et al. 1992b) was assayed as previously described.

[2] = target: T1, Flk (Mus musculus, UniProt P35918); assay: GST-fused kinase domain assay, Flk; format: biochemical
T1 construct: GST-fused kinase domains of Kdr, Flt-1, Flk, Tek, c-Met, and c-Kit were expressed in baculovirus; GST; made in house
Method: as §1

[3] = system: L3.6pl human pancreatic cancer cells; assay: Immunohistochemical analysis of human pancreatic carcinoma in the pancreas of treated nude mice; format: in vivo; details: for PCNA+ tumor cells / TUNEL+ tumor cells: mean ± SD, 10 random 0.159-mm^2 fields at ×100; for CD (CD31, tumor MVD per field): staining with antibodies against CD31
Source text: Immunohistochemical (IHC) Determination of VEGF, IL-8, PCNA, CD31/PECAM-1, and EGF-R. Paraffin-embedded tissues were used for identification of VEGF, IL-8, EGF-R, and proliferating cell nuclear antigen (PCNA). Sections (4–6 μm thick) were mounted on positively-charged Superfrost slides (Fisher Scientific, Co., Houston, Tex.) and dried overnight. Sections were deparaffinized in xylene followed by treatment with a graded series of alcohol (100%, 95%, 80% ethanol/ddH2O [v/v]) and rehydrated in PBS, pH 7.5. Sections analyzed for PCNA were microwaved 5 min for “antigen retrieval” (Shi et al. 1991). All other paraffin-embedded tissues were treated with pepsin (Biomeda) for 15 min at 37° C. and washed with PBS. Frozen tissues used for identification of CD31/PECAM-1, and activated EGF-R were sectioned (8–10 μm), mounted on positively charged Plus slides (Fisher Scientific), and air-dried for 30 min. Frozen sections were fixed in cold acetone (5 min), acetone/chloroform (v/v) (5 min), and acetone (5 min) and washed with PBS. Immunohistochemical procedures were performed as described previously (Rak et al. 1996). Positive reaction was visualized by incubating the slides with stable 3,3′-diaminobenzidine (DAB) for 10–20 min or 3-amino-9-ethylcarbazole (AEC) after CD31 staining. The sections were rinsed with distilled water, counterstained with Gill's hematoxylin for 1 min, and mounted with Universal Mount (Research Genetics). […] Sections analyzed for activated EGF-R were pretreated with goat anti-mouse IgG F(ab)2 fragment (1:10 dilution in PBS) for 4–6 h before incubation with the primary antibody. The positive reaction following staining for activated EGF-R was enhanced with osmium tetraoxide (4% aqueous solution) at a 1:1000 dilution in ddH2O after incubation with DAB.
Immunofluorescence Double Staining for CD31/PECAM-1 (Endothelial Cells) and TUNEL (Apoptotic Cells). Frozen tissues were sectioned (8–10 μm), mounted on positively charged slides, air-dried for 30 min, and fixed in cold acetone for 5 min, acetone+chloroform (1:1) for 5 min, and acetone for 5 min. Samples were washed 3 times with PBS, incubated with protein-blocking solution containing 5% normal horse serum and 1% normal goat serum in PBS for 20 min at room temperature, and incubated with the appropriate dilution (1:400) of rat monoclonal anti-mouse CD31 antibody (human cross-reactive) over 18 h at 4° C. After the samples were rinsed 4 times for 3 min each with PBS, the slides were incubated with the appropriate dilution (1:200) of secondary goat anti-rat conjugated to Texas Red for 1 h at room temperature in the dark. Samples were washed twice with PBS containing 0.1% Brij and washed with PBS for 5 min.
TUNEL was performed using a commercially available apoptosis detection kit with the following modifications: samples were fixed with 4% paraformaldehyde (methanol-free) for 10 min at room temperature, washed twice with PBS for 5 min, and then incubated with 0.2% Triton X-100 for 15 min at room temperature. After two washes of 5 min each with PBS, the samples were incubated with equilibration buffer (from kit) for 10 min at room temperature. The equilibration buffer was drained, and reaction buffer containing equilibration buffer, nucleotide mix, and TdT enzyme was added to the tissue sections and incubated in a humid atmosphere at 37° C. for 1 h in the dark. The reaction was terminated by immersing the samples in 2×SSC for 15 min. Samples were washed 3 times for 5 min to remove unincorporated fluorescein-dUTP. For quantification of […], the samples were incubated with 300 μg/ml of Hoechst stain for 10 min at room temperature. Fluorescent bleaching was minimized by treating slides with an enhancing reagent (Prolong solution). […]

[4] = system: IL-8; assay: In vitro expression of IL-8 by L3.6pl cells (ELISA); format: cell-based, human; details: 72 h, 1 μM PKI166 or 10 nM gemcitabine, control 1440 pg/ml
Method: (§2) In vitro Expression of VEGF and IL-8. L3.6pl cells (2000 cells/38 mm^2 well) were plated into 96-well plates in 200 μl supplemented DMEM containing 5% FBS for 24 h, and then treated with 0.05, 0.5, or 1 μM PKI166. Supplemented DMEM (5% FBS) and human IgG (10 μg/ml) served as controls. Seventy-two hours later, the culture supernatants were collected, and the level of VEGF and IL-8 proteins (corrected for cell number) were determined by Quantikine ELISA kits.

[5] = system: L3.6pl human pancreatic cancer cells
Source text: Animals and Orthotopic Implantation of Tumor Cells. Male athymic nude mice (NCr-nu) were purchased from the Animal Production Area of the National Cancer Institute-Frederick Cancer Research and Development Center (Frederick, Md.). The mice were housed and maintained in laminar flow cabinets under specific pathogen-free conditions in facilities approved by the American Association for Accreditation of Laboratory Animal Care and in accordance with current regulations and standards of the U. S. Department of Agriculture, U.S. Department of Health and Human Services, and the National Institutes of Health. The mice were used in accordance with institutional guidelines when they were 8 to 12 wk old.
Orthotopic Implantation of Tumor Cells. To produce tumors, L3.6pl cells were harvested from subconfluent cultures by a brief exposure to 0.25% trypsin and 0.02% EDTA. Trypsinization was stopped with medium containing 10% FBS, and the cells were washed once in serum-free medium and resuspended in HBSS. Only suspensions consisting of single cells with greater than 90% viability were used for the injections. Cells were injected into the pancreas as described previously. The mice were killed when moribund (5–6 wk). The size and weight of the primary pancreatic tumors, the incidence of regional (celiac and paraaortal) lymph node metastasis, and the number of liver metastases were recorded. Histopathology confirmed the nature of the disease.
Therapy of Established Human Pancreatic Carcinoma Tumors Growing in the Pancreas of Athymic Nude Mice. Seven days after implantation of tumor cells into the pancreas, 5 mice were killed and the presence of tumor lesions was determined. At this time, the median tumor volume was 18 mm^3. Histological examination confirmed the lesions to be actively growing pancreatic cancer.
Necropsy Procedures and Histological Studies. Mice were euthanized and the body weight was determined. Primary tumors in the pancreas were excised and weighed. […] Visible liver metastases were counted with the aid of a dissecting microscope and processed for H&E staining. All macroscopically enlarged regional (celiac and paraaortal) lymph nodes were harvested, and the presence of metastatic disease was confirmed by histology.

[6] = target: T2, c-Met (Homo sapiens, UniProt P08581); assay: GST-fused kinase domain assay, c-Met; format: biochemical
T2 construct: GST-fused kinase domains of Kdr, Flt-1, Flk, Tek, c-Met, and c-Kit were expressed in baculovirus; GST; made in house
Method: as §1

[7] = system: VEGF; assay: In vitro expression of VEGF by L3.6pl cells (ELISA); format: cell-based, human; details: 72 h, 1 μM PKI166 or 10 nM gemcitabine, control 1400 pg/ml
Method: as §2

[8] = mean ± SD absorbance, ratio of tumor cell to normal pancreatic gland expression ×100, day 35

T2 sequence (P08581 1078-1345 limits assumed): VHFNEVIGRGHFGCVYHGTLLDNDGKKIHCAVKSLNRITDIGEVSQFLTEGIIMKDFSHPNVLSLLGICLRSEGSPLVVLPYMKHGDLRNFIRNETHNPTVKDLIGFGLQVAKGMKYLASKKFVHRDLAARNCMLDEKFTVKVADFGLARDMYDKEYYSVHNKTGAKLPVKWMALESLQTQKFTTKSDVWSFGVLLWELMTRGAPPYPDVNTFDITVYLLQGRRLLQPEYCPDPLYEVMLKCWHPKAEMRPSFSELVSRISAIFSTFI
T1 sequence (P35918 832-1160 limits assumed): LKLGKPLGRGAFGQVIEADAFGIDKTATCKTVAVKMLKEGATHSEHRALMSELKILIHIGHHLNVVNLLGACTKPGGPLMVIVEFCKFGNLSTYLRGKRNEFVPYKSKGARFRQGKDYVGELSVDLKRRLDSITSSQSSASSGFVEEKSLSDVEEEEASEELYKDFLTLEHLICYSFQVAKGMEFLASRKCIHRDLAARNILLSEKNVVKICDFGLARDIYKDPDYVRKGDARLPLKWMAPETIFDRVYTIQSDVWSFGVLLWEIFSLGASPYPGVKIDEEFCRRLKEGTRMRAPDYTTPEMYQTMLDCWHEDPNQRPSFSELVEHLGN

Compound: C[C@@H](Nc1ncnc2[nH]c(-c3ccc(O)cc3)cc12)c1ccccc1 [PKI166, 4-(R)-phenethylamino-6-(hydroxyl) phenyl-7H-pyrrolo[2.3-d]-pyrimidine]
- IC50 [1]: > 100000 nM
- IC50 [2]: > 1000 nM
- percentage of apoptotic endothelial cells over total endothelial cells ([3]; CD31/TUNEL double labeling, tumors harvested 23 days after initiation of treatment): 20±15
- ratio of PCNA-positive over TUNEL-positive cells ([3]; calculated): 0.64
- Staining of pancreatic tumors for activated (phosphorylated) EGF-R ([3]; immunohistochemistry of tumors from treated nude mice): not the activated (phosphorylated) EGF-R
- IL-8 [3, 8]: 185 ± 11^e
- VEGF [3, 8]: 173 ± 20^e
- PCNA+ tumor cells ([3]; day 35): 185±33 positive cells/field
- TUNEL+ tumor cells ([3]; day 35): 287±84 positive cells/field
- PCNA+ tumor cells ([3]; day 35, listed as PK1166): 185 ± 33 positive cells/field
- TUNEL+ tumor cells ([3]; day 35, listed as PK1166): 287 ± 84^e positive cells/field
- CD (CD31, tumor MVD per field) ([3]; day 35): 24±18
- CD (CD31, tumor MVD per field) ([3]; day 35, listed as PK1166): 24
- IL-8 in culture supernatant [4]: 640 pg/mL
- Histologically positive regional lymph node metastases, share of animals ([5]; day 35): 90%
- Reduction of growth of primary pancreatic neoplasms ([5]; human pancreatic carcinoma in pancreas of nude mice): 45%
- Tolerability as determined by maintenance of body weight ([5]; mouse, in vivo, po, 100 mg/kg): well tolerated
- IC50 [6]: > 1000 nM
- VEGF in culture supernatant [7]: 180 pg/mL
